Data set [1] addresses T1, CYP2C19 (Homo sapiens, UniProt P33261).
T1 construct: a system of 100 µL of human liver microsomes (final concentration 0.2 mg/mL); from tissue; host or cells: human liver microsomes
In words: Direct inhibition test (DI test), CYP2C19. Type of data set: in vitro ADME. To be noted: human liver microsomes. How it is done:
(§1) Direct inhibition test (DI test): direct inhibition warm incubation was performed with a system of 100 µL of human liver microsomes (final concentration 0.2 mg/mL) containing NADPH (final concentration 1 mM), 10 µM compound, positive inhibitor cocktail (ketoconazole 10 µM, quinidine 10 µM, sulfobenzyrazole 100 µM, α-naphthoflavone 10 µM, tranylcypromine 1000 µM), a negative control (BPS with 0.1% DMSO) and a mixed probe substrate (midazolam 10 µM, testosterone 100 µM, dextromethorphan 10 µM, diclofenac 20 µM, phenacetin100 µM, mephenytoin100 µM), and the reaction was terminated after a warm incubation for 20 min.The relative enzyme activity was calculated by measuring the relative amount of metabolites produced.

Data set [2] concerns the target T2, CYP3A4 (Homo sapiens, UniProt P08684).
T2 construct: a system of 100 µL of human liver microsomes (final concentration 0.2 mg/mL); from tissue; host or cells: human liver microsomes
In words: Direct inhibition test (DI test), CYP3A4. In kind it is in vitro ADME. To be noted: human liver microsomes. How it is done: as §1

Data set [3] can be described thus: Metabolic stability assay, rat liver microsomes. To be noted: rat liver microsomes 0.5 mg/mL, 1 µM compound, read-out: Liver microsomal stability (T½ /min) Rat. Type of data set: in vitro ADME. On the procedure: (§2) Metabolic stability assay: A warm incubation for metabolic stability was performed with a system of 150 µL of liver microsomes (final concentration 0.5 mg/mL) containing NADPH (final concentration 1 mM), 1 µM of the test compound and positive control midazolam or negative control atenolol, and the reaction was terminated with acetonitrile containing tinidazole at 0 min, 5 min, 10 min and 30 min, respectively. The reaction was vortexed for 10 min and centrifuged at 15000 rmp for 10 min, and 50 µL of supernatant was taken into the 96-well plate for sampling. The metabolic stability of the compound was calculated by measuring the relative reduction of the drugs.

Data set [4] addresses T3, KRAS^G12C/SOS1 (Homo sapiens, UniProt P01116, G12C).
T3 construct: purchased CisBio
Kind of data set: KRAS^G12C/SOS1 protein-protein interaction Binding assay (CisBio kit). As to conditions: class symbols. How it is done: CisBio’s KRAS^G12C/SOS1 kit was used to test the efficacy of the compound on inhibiting the protein-protein interaction between SOS1 and KRAS^G12Cby Binding assay.Results were expressed as IC50values.
Test methods: (1) the test compound was tested at a concentration of 1000 nM. Diluted to 3-fold diluted compound of a 200-fold final concentration of 100% DMSO solution in a 384-well plate at 10 concentrations. 50 nL of 200-fold final concentration of compound was transferred to the destination plate 384 well plate using a dispenser Echo 550.50 nL of 100% DMSO was added to the negative control wells and positive control wells; (2) 4-fold final concentration of Tag1 SOS1 solution was prepared using Diluent buffer; (3) 2.5 µL of 4-fold final concentration of Tag1 SOS1 solution was added to the 384-well plate; (4) 4-fold final concentration of Tag2 KRAS^G12C solution was prepared using Diluent buffer; (5) 2.5 µL of 4-fold final concentration of Tag2 KRAS^G12C solution was added to compound wells and positive control wells, respectively; 2.5 µL of diluent buffer was added to negative control wells; (6) the 384-well plate was centrifuged at 1000 rpm for 30 seconds, shaken and mixed, and incubated at room temperature for 15 min; (7) 1-fold final concentration of Anti Tag1 TB3+ solution and 1-fold final concentration of Anti Tag2 XL665 solution were prepared with Detection buffer, and 5 µL of the mixture was added to each well after mixing the two solutions; (8) the 384-well plate was centrifuged at 1000 rpm for 30 seconds, shaken and mixed, and incubated at room temperature for 120 minutes; (9) the Envision enzyme marker was used to read
Em665/620; (10) data analysis, calculation formula; where Min signal is the mean value of negative control wells, Max signal is the mean value of positive control wells.The log value of concentration was used as the X-axis and the percentage inhibition as the Y-axis to fit the quantitative efficacy curve using the log(inhibitor) vs. response Variable slope of the quantitative efficacy curve of the analytical software GraphPad Prism 5 to derive the IC50 value of each compound on the enzyme activity.The fitting formula was: Y=Bottom+(Top Bottom)/(1+10^A((LogIC50X)^∗ HillSlope)).

Data set [5] is described as follows: In vivo pharmacokinetic parameter testing in mice. Also on record: species or system ICR mice. As to conditions: for AUC(0-t) / clearance / half-life: male, ICR, mouse, plasma, iv(1 mg/kg); for AUC(0-t): read-out: Below the curve and AUC0-t; for clearance: read-out: Clearance rate Cl; for half-life: read-out: Half-life T½ (converted).
The target of data set [6] is hERG potassium channels (Homo sapiens, UniProt Q12809). In words: hERG inhibition test. Type of data set: cell-based. To be noted: highest test concentration 40 µM.
Chain of hERG potassium channels (Q12809 whole entry): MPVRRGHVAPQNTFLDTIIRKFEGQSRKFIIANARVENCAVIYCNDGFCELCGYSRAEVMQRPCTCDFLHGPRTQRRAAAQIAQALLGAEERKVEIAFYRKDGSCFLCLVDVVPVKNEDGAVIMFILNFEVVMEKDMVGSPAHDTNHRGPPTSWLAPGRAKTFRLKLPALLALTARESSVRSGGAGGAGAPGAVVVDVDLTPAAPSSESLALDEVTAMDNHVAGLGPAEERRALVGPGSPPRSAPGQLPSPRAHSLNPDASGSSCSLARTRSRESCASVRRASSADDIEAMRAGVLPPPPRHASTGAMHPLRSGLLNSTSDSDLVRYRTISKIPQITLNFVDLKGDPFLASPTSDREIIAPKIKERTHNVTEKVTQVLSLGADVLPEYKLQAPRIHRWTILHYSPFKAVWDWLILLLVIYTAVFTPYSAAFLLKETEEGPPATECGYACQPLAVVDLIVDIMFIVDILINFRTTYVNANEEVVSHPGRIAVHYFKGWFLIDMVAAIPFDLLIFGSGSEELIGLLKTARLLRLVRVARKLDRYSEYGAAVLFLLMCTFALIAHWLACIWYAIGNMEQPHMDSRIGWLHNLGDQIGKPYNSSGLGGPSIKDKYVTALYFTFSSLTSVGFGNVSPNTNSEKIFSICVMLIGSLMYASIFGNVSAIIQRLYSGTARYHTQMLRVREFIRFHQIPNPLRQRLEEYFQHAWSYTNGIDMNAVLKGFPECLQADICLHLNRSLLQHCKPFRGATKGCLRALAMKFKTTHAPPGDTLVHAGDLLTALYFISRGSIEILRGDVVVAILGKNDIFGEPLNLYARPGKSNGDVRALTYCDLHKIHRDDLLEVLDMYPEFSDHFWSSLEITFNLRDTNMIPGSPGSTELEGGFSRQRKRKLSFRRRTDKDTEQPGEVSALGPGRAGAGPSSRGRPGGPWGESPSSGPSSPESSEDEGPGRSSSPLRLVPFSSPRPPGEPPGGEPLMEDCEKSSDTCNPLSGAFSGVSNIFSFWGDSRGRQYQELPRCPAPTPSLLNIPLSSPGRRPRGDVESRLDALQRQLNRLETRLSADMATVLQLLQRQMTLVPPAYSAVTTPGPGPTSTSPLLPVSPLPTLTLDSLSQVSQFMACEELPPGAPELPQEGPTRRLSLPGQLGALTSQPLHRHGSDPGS
Data set [7] deals with phosphorylated ERK levels of MiaPaca-2. In words: ERK phosphorylation (western blot), MiaPaca-2. Type of data set: cell-based. As to conditions: Homo sapiens, MIA PaCa-2, 24 h. How it is done: (§3) Test method 3 (ERK phosphorylation): Miapaca-2 or H358 cells were inoculated at certain concentrations in 96-well plates and incubated overnight at 37° C., 5% CO2 in a cell culture incubator, and serial dilutions of the test compound (5 concentrations, 3-fold dilution) were added to the plates the next day for 24 h (Miapaca-2) or 3 h (H358), then lysis solution containing protease and phosphatase inhibitor were added to lyse the cells to extract proteins and western blot method was used to detect the level of p-ERK.

Data set [8] concerns NCI-H358 (lung cancer) cells. Kind of data set: Proliferation test method 1 (2D, MTT), NCI-H358. To be noted: Homo sapiens, 5-7 days, read-out: IC50 proliferation inhibitory activity against NCI-H358. In kind it is cell-based. How it is done:
Test method 1 (2D):NCI-H358 (lung cancer) and MiaPaca-2 cells (pancreatic cancer) cells (100 µL/well, 20,000 cells/mL) were inoculated in 96-well culture plates supplemented with 10% fetal bovine serum and 1% penicillin/streptomycin sulfate, respectively.Using 0.5% dimethyl sulfoxide as a blank control, cells were treated with a solution of the compound to be tested at a starting concentration of 10 µM, tripled diluted testing solution of the compound in eight gradients were used to treat cells, and then incubated in a 5% CO2 incubator for a certain period of time (5-7 days).At the end of incubation, 10 µL of MTT stock solution (5 mg/mL) was added to each well.The culture plates were incubated at 37° C. for 4 h and then the medium was removed.Dimethyl sulfoxide (100 µL) was added to each well and then shaken sufficiently. The absorbance of the product formazanwas measured at 570 nm on the Thermo Scientific Varioskan Flash multimode reader.IC50 values were obtained by fitting dose-response data into a three-parameter nonlinear regression model using GraphPad Prism 6.0 software.

In data set [9] the test system is phosphorylated ERK levels of NCI-H358. Kind of data set: ERK phosphorylation (western blot), H358. Type of data set: cell-based. As to conditions: Homo sapiens, 3 h. How it is done:
as §3

Data set [10] is described as follows: Metabolic stability assay, monkey liver microsomes. To be noted: monkey liver microsomes 0.5 mg/mL, 1 µM compound, read-out: Liver microsomal stability (T½ /min) monkey. Type of data set: in vitro ADME. How it is done:
as §2

Molecules are shown by their SMILES.

We go through five compounds from patent US20230174526A1, “BENZOTHIAZOLYL BIARYL COMPOUND, AND PREPARATION METHOD AND USE” (SHANGHAI RINGENE BIOPHARMA CO., LTD., priority 2020, published 2023).

T1 sequence (P33261 whole entry): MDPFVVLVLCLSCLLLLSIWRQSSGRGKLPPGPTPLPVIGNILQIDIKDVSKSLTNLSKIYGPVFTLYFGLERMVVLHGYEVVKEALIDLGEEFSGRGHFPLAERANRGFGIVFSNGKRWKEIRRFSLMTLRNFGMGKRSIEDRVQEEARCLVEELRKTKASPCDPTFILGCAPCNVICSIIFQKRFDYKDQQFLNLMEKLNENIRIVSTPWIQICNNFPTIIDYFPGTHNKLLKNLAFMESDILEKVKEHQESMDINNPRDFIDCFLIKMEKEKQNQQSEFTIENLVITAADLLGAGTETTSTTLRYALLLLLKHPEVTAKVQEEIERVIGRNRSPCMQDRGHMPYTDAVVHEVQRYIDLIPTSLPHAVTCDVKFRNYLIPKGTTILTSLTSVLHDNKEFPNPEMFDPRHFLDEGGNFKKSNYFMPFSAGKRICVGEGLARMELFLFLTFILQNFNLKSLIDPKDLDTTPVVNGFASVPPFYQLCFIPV
T2 sequence (P08684 whole entry): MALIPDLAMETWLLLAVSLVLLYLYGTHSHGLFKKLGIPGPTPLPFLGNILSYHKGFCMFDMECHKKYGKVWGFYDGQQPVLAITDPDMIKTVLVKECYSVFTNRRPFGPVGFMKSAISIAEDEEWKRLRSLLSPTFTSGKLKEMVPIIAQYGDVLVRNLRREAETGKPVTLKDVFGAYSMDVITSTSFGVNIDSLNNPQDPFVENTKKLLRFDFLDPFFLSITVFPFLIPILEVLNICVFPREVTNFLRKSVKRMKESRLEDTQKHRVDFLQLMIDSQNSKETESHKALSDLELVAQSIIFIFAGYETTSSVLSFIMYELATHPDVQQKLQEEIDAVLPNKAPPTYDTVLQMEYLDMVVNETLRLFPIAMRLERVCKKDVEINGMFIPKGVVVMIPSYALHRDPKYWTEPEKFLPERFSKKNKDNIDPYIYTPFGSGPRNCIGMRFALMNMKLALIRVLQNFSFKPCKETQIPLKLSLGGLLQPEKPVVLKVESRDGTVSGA
T3 sequence (P01116 1-188 isoform P01116-2 G12C): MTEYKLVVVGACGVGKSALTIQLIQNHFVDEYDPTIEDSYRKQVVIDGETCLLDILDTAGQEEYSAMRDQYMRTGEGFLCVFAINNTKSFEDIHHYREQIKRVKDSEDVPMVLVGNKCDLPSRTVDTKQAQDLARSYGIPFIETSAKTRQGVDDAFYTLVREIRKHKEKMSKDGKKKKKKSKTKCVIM

With `C=CC(=O)N1C[C@@H]2C(=O)N(C)c3cnc4c(F)c(-c5ccc(F)c6sc(N)nc56)c(Cl)cc4c3N2C[C@H]1C` (single isomer, unassigned) [Example 17-1], in data set [1], the IC50 is over 10000 nM. Also, the IC50 in data set [2] is over 10000 nM. Also, the half-life at 1 µM in data set [3] was over 30 min. Besides, the IC50 in data set [4] fell in the range of 50 to 200 nM. Further, in data set [5] (in words), the “AUC compared to the comparative compound 1” value is recorded as “significantly increased”, the “clearance rate Cl compared to the comparative compound 1” value is listed as “significantly lower” and the “pharmacokinetic properties in mice compared to comparative compound 1” value is given as “significantly better”. Moreover, in data set [5], the AUC(0-t) was 3.31 ± 0.187 µM·h, the clearance came out at 9.04 ± 0.5 mL/min/kg and the half-life was 66 min. The IC50 in data set [6] was over 20000 nM.

As to `C=CC(=O)N1CCN(c2nc(OC[C@@H]3CCCN3C)nc3c(F)c(-c4ccc(F)c5sc(N)nc45)c(Cl)cc23)C[C@H]1C` [Example 11, 1-((2R)-4-(7-(2-Amino-7-Fluorobenzo [d] Thiazol-4-yl) -6-Chloro-8-Fluoro-2-(((S)-1-Methylpyrrolidin-2-yl) Methoxy) Quinazolin-4-yl)-2-Methylpiperazin-1-yl) Prop-2-En-1-One], the IC50 is over 10000 nM in [1]; over 10000 nM in [2]; under 500 nM in data set [7]; under 100 nM in data set [8]; 50 to 200 nM in data set [4]; under 500 nM in [9]. In [6], this compound registered an IC50 of over 20000 nM. The half-life at 1 µM in data set [3] was over 30 min.

Turning to `C=CC(=O)N1CCN(c2c(C#N)c(N3CC(N(C)C)C3)nc3c(F)c(-c4ccc(F)c5sc(N)nc45)c(Cl)cc23)CC1` [Example 21, 4-(4-acryloyl Piperazin-1-yl)-7-(2-Amino-7-Fluorobenzo [d] Thiazol-4-yl) -6-Chloro-2-(3-(Dimethylamino) Azetidine-1-yl)-8-Fluoroquinolin-3 -Cyano], the IC50 was over 10000 nM in [1]; over 10000 nM in [2]; under 500 nM in data set [7]; under 100 nM in data set [8]; under 50 nM in data set [4]; under 500 nM in data set [9]. In data set [6], the IC50 is over 20000 nM. The half-life at 1 µM in [3] and in data set [10] was over 30 min in each case. Further, in data set [5] (in words), the “pharmacokinetic properties in mice compared to comparative compound 1” value was “significantly better”. The AUC(0-t) in [5] was 1.29 ± 0.07 µM·h. Besides, the clearance in [5] is 21.6 ± 1.05 mL/min/kg. Also, the half-life in [5] is 78 min.

Regarding `C=CC(=O)N1CCN(c2c(C#N)cnc3c(F)c(-c4ccc(F)c5sc(N)nc45)c(Cl)cc23)CC1` [Example 8], the IC50 is over 10000 nM in data set [1]; over 10000 nM in data set [2]; under 500 nM in data set [7]; under 100 nM in data set [8]; under 50 nM in [4]; under 500 nM in data set [9]. For the same compound, the IC50 in data set [6] is over 20000 nM. Further, the half-life at 1 µM in data set [3] and in [10] was over 30 min each time. In data set [5] (in words), the “AUC compared to the comparative compound 1” value is on record as “significantly increased”. Moreover, in data set [5] (in words), the “clearance rate Cl compared to the comparative compound 1” value was “significantly lower”. Also, in data set [5] (in words), the “pharmacokinetic properties in mice compared to comparative compound 1” value is “significantly better”. Further, the AUC(0-t) in [5] is 2.85 ± 0.363 µM·h. For the same compound, the clearance in [5] was found to be 11.5 ± 1.52 mL/min/kg. For the same compound, in data set [5], the half-life is 31.2 min.

`C=CC(=O)N1CCN(c2c(C#N)c(OC[C@@H]3CCCN3C)nc3c(F)c(-c4ccc(F)c5sc(N)nc45)c(Cl)cc23)CC1` [Example 3, 4-(4-Piperazinylacryloylpiperazin-1-yl)-7-(2-Amino-7-Fluorobenzo[d]Thiazol-4-yl)-6-Chloro-8-Fluoro-2-(((S)-1-Methylpyrrolidin-2-Yl)Methoxy)Quinoline-3-Cyano]: the IC50 is over 10000 nM in data set [1]; over 10000 nM in data set [2]; under 500 nM in data set [7]; under 100 nM in data set [8]; under 50 nM in [4]; under 500 nM in data set [9]. In data set [6], this compound showed an IC50 of over 20000 nM. For the same compound, in data set [10], the half-life at 1 µM is over 30 min. In addition, in data set [5] (in words), the “AUC compared to the comparative compound 1” value was “significantly increased”. For the same compound, in [5] (in words), the “clearance rate Cl compared to the comparative compound 1” value was “significantly lower”. The “in vivo metabolic half-life compared to the comparative compound 1” value in data set [5] (in words) is “significantly longer”. Further, the “pharmacokinetic properties in mice compared to comparative compound 1” value in data set [5] (in words) is “significantly better”. Also, in [5], the AUC(0-t) was 4.09 ± 0.373 µM·h. Besides, the clearance in data set [5] turned out to be 6.35 ± 0.67 mL/min/kg. For the same compound, the half-life in data set [5] was 390 min.
